Data set [1] has as its system Vesicular stomatitis. Kind of data set: microbe, parasite or virus in culture. Conditions: PRK, read-out: MIC50. The data set is classed as cell-based.
Data set [2] can be described thus: Test 3: cytotoxicity, Vero cells. The data set is classed as cell-based, green monkey. As to conditions: monkey, Table 4, read-out: Minimum cytotoxic concentration (MCC). The method, then: (§1) A further test was effected to determine the cytotoxicity of the chemical compounds of Table 1. Cell cultures were incubated with varying concentrations of the esters, during a time period equal to the period required for measuring antiviral activity. The compounds (S)-DHPA and (RS)-DHPA were used for comparative purposes. For each compound, the minimum cytotoxic concentration (MCC) was measured, that is the concentration required to cause a microscopically detectable alteration of normal cell morphology, when incubated with the cells in this way.

Data set [3] deals with Measles. Kind of data set: microbe, parasite or virus in culture. The data set is classed as cell-based. As to conditions: Measles morbillivirus, Vero; read-out: MIC50.
The subject of data set [4] is Vaccinia. Kind of data set: microbe, parasite or virus in culture. As to conditions: Orthopoxvirus vaccinia, PRK, read-out: MIC50. The data set is classed as cell-based.
Data set [5] has as its system Polio 1. Kind of data set: microbe, parasite or virus in culture. The data set is classed as cell-based. Conditions: HeLa, read-out: MIC50.
Data set [6] concerns Coxsackie virus-B4. Kind of data set: Test 2: antiviral activity, Coxsackie virus-B4 in HeLa cells. Format: cell-based. As to conditions: Table 3.
Data set [7] relates to Parainfluenza. Kind of data set: microbe, parasite or virus in culture. The data set is classed as cell-based. As to conditions: Vero B; read-out: MIC50.
The subject of data set [8] is Sindbis virus. Kind of data set: microbe, parasite or virus in culture. The data set is classed as cell-based. Conditions: Vero.
The subject of data set [9] is Parainfluenza-virus-3. Kind of data set: microbe, parasite or virus in culture. Format: cell-based. As to conditions: Vero.
Data set [10] has as its system Sindbis. Kind of data set: Test 1: inhibition of virus cytopathic effect, Sindbis in Vero B cells. Conditions: Table 2, read-out: MIC50. The data set is classed as cell-based. The method, then: The antiviral properties of the esters prepared in Example 1 was explored in a variety of cell cultures and with a variety of DNA and RNA viruses such as listed in Table 2. The cells of each cell culture were inoculated with a certain virus in a dose of about 100 CCID50, that is about 100 times the dose needed to infect 50 percent of the cells. One hour after inoculation, the celss were washed with Eagle's nutrient medium and an ester of Example 1 was added in a dose varying from zero to 300 ug/ml and sometimes to more than 400 ug/ml. The compound (S)-DHPA was used in a comparative experiment. […] The cytopathic effect itself was measured in control experiments with virus-infected cell cultures without any added chemical compound and recorded as soon as it reached completion (Method of L. J. Rosenthal and I. L. Schechmaister in "Tissue Culture", p. 510, Academic Press, New York, 1973).
The results are shown in Table 2, wherein the abbreviations have the following meaning: PRK: primary culture of rabbit kidney cells; Vero: continuous line of green monkey kidney cells, HeLa: epithelial line of human cervical carcinoma cells.

Data set [11] is described as follows: Test 3: cytotoxicity, HeLa cells. The data set is classed as cell-based. As to conditions: human, Table 4, read-out: Minimum cytotoxic concentration (MCC). The method, then:
as §1

In data set [12] the test system is Vesicular stomatitis virus. Format: cell-based. Conditions: ratio of MCC (PRK cells) to MIC50 (vesicular stomatitis virus).
Data set [13] is described as follows: Test 3: cytotoxicity, PRK cells. Format: cell-based. Conditions: rabbit, Table 4, read-out: Minimum cytotoxic concentration (MCC). The method, then:
as §1

Data set [14] relates to Reo virus-1. Kind of data set: Test 2: antiviral activity, reo virus-1 in Vero cells. Format: cell-based. As to conditions: Reo virus-1, Vero cells; Table 3.
The subject of data set [15] is Herpes simplex 1 (KOS). Kind of data set: Test 1: inhibition of virus cytopathic effect, herpes simplex 1 (KOS) in PRK cells. Format: cell-based. Conditions: Table 2, read-out: MIC50.
In data set [16] the test system is Reovirus 1. Kind of data set: Test 1: inhibition of virus cytopathic effect, reovirus 1 in Vero B cells. Conditions: Mammalian orthoreovirus 1; Reovirus 1, Vero B cells; Table 2; read-out: MIC50. Format: cell-based.
Data set [17] relates to Measles virus. Kind of data set: microbe, parasite or virus in culture. The data set is classed as cell-based. Conditions: Measles morbillivirus, Vero.
Data set [18] concerns DNA and RNA viruses. Kind of data set: Antiviral activity against DNA and RNA viruses (general statements). The data set is classed as cell-based.
Data set [19] in a line: Solubility. Format: physicochemical.
The test system of data set [20] is living cells. As to conditions: known DHPA; cited from earlier work.
The subject of data set [21] is DNA and RNA viruses. Conditions: known DHPA and related derivatives; cited from earlier work.

Values after ≈ are worked out from the molar mass of the structure shown. Read-outs that look alike come from different tables or passages of the source.

In the case of `COC(=O)C(O)Cn1cnc2c(N)ncnc21` (racemic) [Compound 1, methylester of 3-(adenin-9-yl)-2-hydroxypropanoic acid], the EC50 was 3 µg/mL (≈ 12.6 µM) in [1]; 40 µg/mL (≈ 169 µM) in [3]; 7 µg/mL (≈ 29.5 µM) in [4]; more than 400 µg/mL in [5]; more than 400 µg/mL in data set [6]; 100 µg/mL (≈ 422 µM) in [7]. The EC50 is more than 400 µg/mL in data set [8]; 20 µg/mL (≈ 84.3 µM) in data set [9]; more than 400 µg/mL in data set [10]; 200 µg/mL (≈ 843 µM) in data set [14]; more than 400 µg/mL in data set [15]; 300 µg/mL (≈ 1260 µM) in [16]. The molecule also returned an EC50 in data set [17] of 40 µg/mL (≈ 169 µM). The MCC in data set [2], in [11] and in data set [13] was more than 400 µg/mL each time. For the same molecule, in [12], the antiviral index result is on record as “higher than 100 -fold”.
With `Nc1ncnc2c1ncn2CC(O)C(=O)O` (stereo not drawn) [3-(adenin-9-yl)-2-hydroxypropanoic acid], the “antiviral activity (in words)” value in data set [18] is listed as “inactivity”. Moreover, in data set [19], the “solubility (in words)” value is recorded as “poorly soluble in water”.
On to `Nc1ncnc2c1ncn2CC(O)CO` (stereo not drawn) [DHPA, 9-(2,3-dihydroxypropyl)adenine], for which the “acute toxicity for living cells (in words)” value in [20] is “low acute toxicity for living cells”. Also, the “antiviral activity (in words)” value in data set [21] is “broad-spectrum antiviral activity in (S) or (RS) form”.

The values above are taken from patent US4605658A (priority 1983, dated 1986).
